This is an account of results in US8377969B2, “Compounds for use in the treatment of cancer” (PledPharma AB, priority 2007, dated 2013).

Series [1] relates to human adenocarcinoma cells (SW620). Briefly: Fluorometric microculture cytotoxicity assay (FMCA), SW620. Type of series: cell-based. The following applies: for cytostatic effect (alone): FMCA, 72 h. On the procedure:
(§1) HCT-8 cells were grown in RPMI 1640 medium with sodium pyruvate (1 mM) and 10% horse serum. SW620 were grown in ATCC-formulated Leibovitz's L-15 Medium with 10% fetal bovine serum. Cells were kept at 37° C. in a humidified atmosphere containing 5% carbon dioxide. The cells were harvested in the log-phase for experimental use. The fluorometric microculture cytotoxicity assay (FMCA) was used to investigate the cytostatic activity of oxaliplatin, MnDPDP or DPDP and combinations thereof. FMCA is based on measurement of fluorescence generated from hydrolysis of fluorescein diacetate (FDA) to fluorescein by cells with intact plasma membranes. Briefly, 96-well microtiter plates were freshly prepared with drug solutions in triplicates at 10 times the desired drug concentrations. Cell suspensions were seeded into the drug-prepared plates with 20 000 cells per well and plates were then incubated for 72 h. After incubation, the plates were washed, FDA was added, and after 50 min of incubation the fluorescence generated (excitation 480 nm) was measured at 538 nm in a fluorometer (Fluorostar Optima, BMG Technologies). The fluorescence is proportional to the number of cells with intact plasma membrane present in the well.

Series [2] deals with human ileocecal colorectal adenocarcinoma cells (HCT-8). The series can be described thus: Fluorometric microculture cytotoxicity assay (FMCA), HCT-8. Type of series: cell-based. Conditions: HCT-8 cells; for cytostatic effect (alone): FMCA, 72 h. Here is the method:
as §1

Series [3] relates to normal retinal epithelia telomerase immortalized cells (hTERT-RPE1). Briefly: Fluorometric microculture cytotoxicity assay (FMCA), hTERT-RPE1. The following applies: for cytostatic effect (alone): FMCA, 72 h. Type of series: cell-based.
Series [4] can be described thus: Fenton assay (competition with iron, H2DCF oxidation). Conditions: FIG. 4. On the procedure:
By permitting the chelator DPDP, the metal complexes MnDPDP and MnPLED to compete with iron in the Fenton assay, the stability of MnDPDP and MnPLED was compared.
H2O2 (100 μM) was added to initiate the production of hydroxyl radicals (HO.). The latter oxidize H2DCF (non-fluorescent 2′,7′-dichlorodihydrofluorescein; 5 μM) to fluorescent DCF (2′,7′-dichlorofluorescein). H2DCF was obtained by hydrolysing its acetate ester (H2DCF-DA)]. […] DPDP, MnDPDP and MnPLED at various concentrations were assayed for their iron-chelating capacity. Fluorescence was measured in an FL600 Microplate Fluorescence reader (Bio-Tek, Winooski, Vt., U.S.A.) at ex 485 nm and em 530 nm.

In series [5] the test system is infarct size. Conditions: pigs; MnPLED 3 μmol/kg; cited from earlier work.
The conditions of series [6]: cited from earlier work.
The conditions of series [7]: pigs, ten minutes after injection; cited from earlier work.
The conditions of series [8]: from the reported stability constants.
The conditions of series [9]: Rocklage et al., 1989; cited from earlier work.
The conditions of series [10]: Rocklage et al., 1989; cited from earlier work. The source holds these as a separate data set.
For series [11] the following is noted: Rocklage et al., 1989; cited from earlier work. The source holds these as a separate data set.
Series [12] relates to human colon cancer SW480 cells. Conditions: 24 h, MTT. On the procedure: (§2) The viability of cells was measured using the MTT assay. Briefly, 20,000 SW480 or J774 cells were seeded per well on a 96-well plate and grown over night in Dulbecco's Modified Eagle's Medium (DMEM) containing 10% fetal bovine serum, 2 mM L-glutamine, 100 Ul/ml penicillin and 100 μg/ml streptomycin at 37° C. in humidified air with 5% CO2. Cells were then exposed for 24 h to 50 μM MnDPDP, 50 μM DPDP or 10 μM oxaliplatin at 37° C. The effect of combining 50 μM DPDP with 10 μM oxaliplatin on viability was also tested. The viability of the cells was then assessed by adding 5 mg/ml methylthiazoletetrazolium (MTT) to a final concentration of 0.5 mg/ml and incubating cells for a further 4 h at 37° C. The blue formazan that is formed by mitochondrial dehydrogenases of viable cells was then dissolved over night at 37° C. by adding 10% SDS and 10 mM HCl to a final concentration of 5% SDS and 5 mM HCl. Finally, the absorbance of the solution was read at 570 nm with a reference at 670 nm in a microplate reader Spectramax 340 (Molecular Devices, Sunnyvale, Calif., USA) connected to an Apple Macintosh computer running the program Softmax Pro V1.2.0 (Molecular Devices, Sunnyvale, Calif., USA).

Series [13] deals with murine lymphoma J774 cells. Conditions: 24 h, MTT. On the procedure:
as §2

As to MnDPDP, the “cytostatic effect (alone)” value in series [1], in [2] and in [3] was “Neither MnDPDP nor DPDP demonstrated any cytostatic effect” each time. Moreover, in series [4] (Fenton assay), the iron-chelating capacity entry is listed as “significantly higher than that of MnPLED”. For the same molecule, the infarct size entry in [5] is given as “did not reduce the infarct size”. In addition, the administered manganese released result in [6] (humans, intravenous injection) is reported as “about 70%”. In addition, the “injected manganese that stays bound to the chelator” value in series [6] (man, for a considerable amount of time) is listed as “about 30%”. Further, the “injected MnDPDP transformed into MnPLED” value in [6] (man, shortly after intravenous injection) was “about 30%”. In addition, in [7], the “replacement of manganese with zinc” value is on record as “all manganese has been replaced with zinc”.
For the molecule `O=C1[O][Pt]2([NH][C@@H]3CCCC[C@H]3[NH]2)[O]C1=O` [Oxaliplatin, oxaliplatin], the “cytostatic effect (alone)” value in series [1] is on record as “concentrations-dependent cytostatic effect”; in series [2], “concentrations-dependent cytostatic effect”; in series [3] it was “only a slight effect at its highest concentration”.
As to `Cc1ncc(CO)c(CN(CCN(CC(=O)O)Cc2c(CO)cnc(C)c2O)CC(=O)O)c1O` [PLED, N,N′-dipyridoxyl ethylenediamine-N,N′-diacetic acid], the “how much more readily Mn^2+ dissociates than Zn^2+” value in series [8] is “about 1000 times”. In series [9], the “stability constant with Mn^2+” value is on record as 12.56 logK. In addition, the “stability constant with Zn^2+” value in series [10] is given as 16.68 logK. Besides, in series [11], the “stability constant with Fe^3+ (ferric iron)” value was 36.88 logK.
With `Cc1ncc(COP(=O)(O)O)c(CN(CCN(CC(=O)O)Cc2c(COP(=O)(O)O)cnc(C)c2O)CC(=O)O)c1O` [DPDP, N,N′-bis-(pyridoxal-5-phosphate)-ethylenediamine-N,N′-diacetic acid], the “cytostatic activity in combination with oxaliplatin versus oxaliplatin alone” value in series [12] (50 μM DPDP + 10 μM oxaliplatin) was “tendency, although not statistically significant (p<0.07), that DPDP in combination with oxaliplatin was more potent than oxaliplatin alone”; in series [13] (50 μM DPDP + 10 μM oxaliplatin), “significantly more efficacious than oxaliplatin alone”. Moreover, the cytostatic activity result in series [12] (50 μM, unpaired t-test, FIG. 1) is “statistically significant more efficacious than that of 50 μM MnDPDP”; in series [13] (50 μM, FIG. 2) it was “significantly more efficacious to kill the lymphoma cells than MnDPDP”. Moreover, the “potentiation of the cytostatic effects of oxaliplatin” value in [1] (100 μM with 8 μM oxaliplatin, FMCA 72 h, FIG. 3B) was “significantly (unpaired t-test) potentiated”; in series [2] (100 μM with 8 μM oxaliplatin, FMCA 72 h, FIG. 3C) it was “significantly (unpaired t-test) potentiated”; in series [3] (100 μM with 8 μM oxaliplatin, FMCA 72 h, FIG. 3D) it was “but not in normal cells”. Moreover, the “cytostatic effect (alone)” value in series [1], in series [2] and in [3] was “Neither MnDPDP nor DPDP demonstrated any cytostatic effect” throughout. The “inhibition of the Fenton reaction” value in [4] (10 μM ferric iron, 100 μM cysteine, 100 μM H2O2) is “inhibited the Fenton reaction in a dose-dependent manner”. Besides, the “concentration at which inhibition of the Fenton reaction started” value in series [4] (10 μM ferric iron) turned out to be 0.1 µM. The “concentration at which inhibition of the Fenton reaction was complete” value in series [4] (10 μM ferric iron) came to 10 µM. Besides, the “how much more readily Mn^2+ dissociates than Zn^2+” value in series [8] is “about 1000 times”.
